Data taken from the NIST ThermoML archive (doi:10.1016/j.jct.2015.09.002).

Assay: xn = mol fraction of the nth substance listed
Settings: 93.2 kPa, Liquid, Vibrating tube method

CCCN [propan-1-amine] + CC#N
mass density [kg/m3]
Settings | 293.15 K | 298.15 K | 303.15 K | 308.15 K
x2 = 0 | 716.48 | 711.21 | 705.88 | 700.62
x2 = 0.0105 | 717.02 | 711.79 | 706.42 | 701.16
x2 = 0.0199 | 717.49 | 712.26 | 706.89 | 701.63
x2 = 0.0296 | 717.97 | 712.74 | 707.37 | 702.11
x2 = 0.0409 | 718.55 | 713.3 | 708.3 | 702.66
x2 = 0.0512 | 719.01 | 713.79 | 708.42 | 703.16
x2 = 0.061 | 719.48 | 714.26 | 708.9 | 703.65
x2 = 0.0707 | 719.96 | 714.7 | 709.38 | 704.14
x2 = 0.0809 | 720.48 | 715.23 | 710.24 | 704.64
x2 = 0.0895 | 720.87 | 715.66 | 710.31 | 705.06
x2 = 0.0993 | 721.35 | 716.14 | 710.79 | 705.55
x2 = 0.1493 | 723.85 | 718.65 | 713.34 | 708.1
x2 = 0.2006 | 726.46 | 721.27 | 715.97 | 710.75
x2 = 0.2499 | 729.08 | 723.91 | 718.64 | 713.3
x2 = 0.2998 | 731.77 | 726.59 | 721.31 | 715.96
x2 = 0.3507 | 734.55 | 729.34 | 724.05 | 718.82
x2 = 0.3993 | 737.38 | 732.18 | 726.9 | 721.58
x2 = 0.4479 | 740.27 | 735.05 | 729.77 | 724.44
x2 = 0.4988 | 743.34 | 738.1 | 732.79 | 727.56
x2 = 0.5486 | 746.55 | 741.33 | 736.02 | 730.68
x2 = 0.6017 | 750.02 | 744.77 | 739.46 | 734.16
x2 = 0.6499 | 753.32 | 748.08 | 742.76 | 737.45
x2 = 0.6998 | 756.86 | 751.61 | 746.49 | 740.98
x2 = 0.7501 | 760.68 | 755.4 | 750.19 | 744.7
x2 = 0.8001 | 764.57 | 759.28 | 754.03 | 748.54
x2 = 0.8487 | 768.54 | 763.25 | 757.85 | 752.47
x2 = 0.8995 | 772.9 | 767.55 | 762.15 | 756.72
x2 = 0.9089 | 773.68 | 768.32 | 762.93 | 757.54
x2 = 0.9201 | 774.65 | 769.28 | 763.89 | 758.5
x2 = 0.928 | 775.36 | 770 | 764.6 | 759.19
x2 = 0.9393 | 776.43 | 771.07 | 765.67 | 760.24
x2 = 0.9491 | 777.27 | 771.89 | 766.51 | 761.05
x2 = 0.9594 | 778.22 | 772.82 | 767.45 | 761.98
x2 = 0.9678 | 778.99 | 773.6 | 768.21 | 762.74
x2 = 0.9795 | 780.09 | 774.69 | 769.3 | 763.82
x2 = 0.9893 | 781.01 | 775.61 | 770.21 | 764.73

CCCCN [1-butanamine] + CC#N
mass density [kg/m3]
Settings | 293.15 K | 298.15 K | 303.15 K | 308.15 K
x2 = 0 | 737.12 | 732.33 | 727.51 | 722.66
x2 = 0.0102 | 737.48 | 732.7 | 727.88 | 723.03
x2 = 0.0229 | 737.89 | 733.1 | 728.28 | 723.42
x2 = 0.0481 | 738.62 | 733.83 | 729.01 | 724.14
x2 = 0.0616 | 738.99 | 734.2 | 729.37 | 724.51
x2 = 0.2006 | 742.87 | 738.04 | 733.19 | 728.3
x2 = 0.35 | 747.75 | 742.84 | 737.89 | 732.98
x2 = 0.4 | 749.52 | 744.61 | 739.64 | 734.69
x2 = 0.4503 | 751.36 | 746.43 | 741.47 | 736.49
x2 = 0.5007 | 753.36 | 748.41 | 743.43 | 738.41
x2 = 0.5489 | 755.38 | 750.41 | 745.4 | 740.35
x2 = 0.6002 | 757.66 | 752.67 | 747.61 | 742.54
x2 = 0.6492 | 759.99 | 754.96 | 749.88 | 744.78
x2 = 0.6998 | 762.57 | 757.51 | 752.4 | 747.24
x2 = 0.7488 | 765.21 | 760.11 | 754.97 | 749.77
x2 = 0.7997 | 768.18 | 763.02 | 757.82 | 752.57
x2 = 0.85 | 771.3 | 766.08 | 760.83 | 755.54
x2 = 0.9004 | 774.67 | 769.4 | 764.09 | 758.76
x2 = 0.9188 | 775.96 | 770.66 | 765.33 | 759.98
x2 = 0.9498 | 778.23 | 772.9 | 767.54 | 762.15
x2 = 0.96 | 779.01 | 773.67 | 768.29 | 762.89
x2 = 0.9694 | 779.73 | 774.38 | 769 | 763.59
x2 = 0.9804 | 780.56 | 775.21 | 769.81 | 764.38
x2 = 0.9892 | 781.24 | 775.87 | 770.46 | 765.03
